20 compounds from patent US20230087994A1, “TARGETED BIFUNCTIONAL DEGRADERS” (YALE UNIVERSITY, priority 2019, published 2023) can be followed below.

One data set concerns the target T1, human MIF (Homo sapiens, UniProt P14174).
T1 sequence (P14174 2-115 limits assumed): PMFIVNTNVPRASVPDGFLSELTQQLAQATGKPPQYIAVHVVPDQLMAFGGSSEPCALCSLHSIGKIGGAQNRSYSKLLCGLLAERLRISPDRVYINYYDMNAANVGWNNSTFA
The experiment in a line: Depletion of human MIF from cell culture supernatant (sandwich ELISA). It is filed as cell-based. Set-up: host or cells: exogenous protein added to cell culture. To be noted: for depletion of MIF from cell culture supernatant / depletion of human MIF from cell culture supernatant: human MIF 100 nM; for depletion of MIF from cell culture supernatant: MIF-AF2 at 40 nM, 200 nM, and 1 μM, FIG. 129; for depletion of human MIF from cell culture supernatant: FIG. 128A. On the procedure: The ability of bifunctional MIF-binding molecules to mediate the depletion of human MIF from cell culture was investigated. In these assays, human MIF was present at a concentration of 100 nM, and a sandwich ELISA assay was utilized to measure the concentration of human MIF remaining in the cell culture supernatant. The closely related bifunctional molecules MIF-GN3, MIF-PEG2-GN3, and MIF-PEG4-GN3 were used, as well as the structurally dissimilar molecule MIF-NVS-PEG3-GN3. […] Based on the ease of its synthesis and its efficacy in this experiment, MIF-GN3 was utilized for further studies. It was next investigated whether the MIF inhibitor 3w mediates MIF depletion from cell culture supernatant. […] When cells were treated with 3w, no depletion of exogenous MIF protein was observed after 24 hours (FIG. 128B).
(In an ELISA, binding on a coated surface is turned into a signal by an enzyme label.)

Data set [1] relates to HepG2 cells. The experiment in a line: Degradation of α-DNP antibody endocytosed via DNP-AF3 in HepG2 cells (PAGE, 50 kDa/25 kDa band ratio) and effect of protease inhibitors. It is filed as cell-based, human. To be noted: for inhibition of α-DNP antibody degradation, triplicate: 12 hours, FIG. 117; for inhibition of degradation of α-DNP antibody, repeat with selected conditions: 80 μM leupeptin, 10 and 100 μM ALLN, 15 μM pepstatin, FIG. 118, leupeptin not significant (p=0.0504); for toxicity to cells: pepstatin 5 μM after 24 hours, AEBSF 100 μM, ALLN 100 μM by 24 hours. An excerpt:
First, reducing conditions were used to visualize antibody degradation via PAGE gel.

In data set [2] the test system is HepG2 cells. The experiment in a line: MIF-GN3-mediated endocytosis of fluorescently labeled human MIF by HepG2 cells. To be noted: 100 nM MIF, 200 nM MIF-GN3; FIG. 132. On the procedure:
Human MIF protein was fluorescently labeled with Alexa 488 NHS ester, then incubated with HepG2 cells in the presence of varying levels of MIF-GN3.
Next, inhibitors of various endocytic pathways were utilized to determine if MIF-GN3 mediates MIF endocytosis in a manner consistent with ASGPR (FIG. 132).

Data set [3] has as its system HepG2 cells. Briefly: DNP-GN3-mediated endocytosis of fluorescently labeled α-DNP antibody by adherent HepG2 cells. The note with it: DNP-GN3-mediated uptake; FIG. 89. It is filed as cell-based, human. On the procedure:
It was next explored whether DNP-GN3 mediates the endocytosis of fluorescently labeled α-DNP antibody.
To explore the cellular mechanism of antibody uptake, cells were treated with chemical inhibitors of several endocytic pathways (FIG. 89).

[4] abbreviates: single replicate, FIG. 116, leupeptin 20 and 80, E64 50 and 10 μM, antipain 50 and 100 μM, aprotinin 400 or 800 nM, PMSF 100 or 500 μM, AEBSF 10 μM, ALLN 10 μM.

Square brackets hold non-standard residues; d marks the D form. Peptide text beside a SMILES is read from it. * marks the point of attachment. Sta = CC(C)C[C@H](N)[C@@H](O)CC(=O)O; Isovaleryl = CC(C)CC(=O)*; Nle = CCCC[C@H](N)C(=O)O

For the compound `O=C(CCCOc1ccc2nc(-c3cn(-c4ccc(O)c(F)c4)nn3)ccc2c1)NCCOCCC(=O)NCCOCCOCCOCCOC[C@]12CO[C@H](O1)[C@H](NC(=O)C(F)(F)F)[C@@H](O)[C@H]2O` [MIF-AF1], on human MIF, the “depletion of MIF from cell culture supernatant” value is recorded as “not effective”.

With Aprotinin, in the data set on HepG2 cells [1], the “inhibition of α-DNP antibody degradation, triplicate” value (“inhibition … triplicate” for short) was “did not significantly inhibit”. Moreover, the “inhibition of α-DNP antibody degradation, initial screen” value (“inhibition … initial screen” below) in the data set on HepG2 cells [1] (setting [4]) is on record as “not effective”.

In the case of `CC(C)C[C@H](NC(=O)[C@@H](O)[C@H](N)Cc1ccccc1)C(=O)O` [Bestatin], the “inhibition … triplicate” value in the data set on HepG2 cells [1] is “did not significantly inhibit”. In addition, the “inhibition … initial screen” value in the data set with HepG2 cells [1] (setting [4]) was “not effective”.

Turning to `CCCC[C@@H](C=O)NC(=O)[C@H](CC(C)C)NC(=O)[C@H](CC(C)C)NC(C)=O` [ALLN] (Ac-Leu-Leu-[Nle]-aldehyde), the “inhibition … initial screen” value in the data set with HepG2 cells [1] (100 μM, 12 hour time point) is recorded as “strong inhibition”; in the data set with HepG2 cells [1] (setting [4]), “not active”. The “inhibition … triplicate” value in the data set on HepG2 cells [1] was “appeared effective”.

As to `CCN(c1nc(N)c(C(=O)NC(=N)N)nc1Cl)C(C)C` [EIPA], the “effect of endocytic pathway inhibitors on MIF-GN3-mediated MIF endocytosis” value with HepG2 cells [2] was “significantly inhibited uptake”. For the same compound, the “effect of endocytic pathway inhibitors on intracellular fluorescence” value in the data set on HepG2 cells [3] is given as “did not significantly decrease”.

As for `O=C(CCOCC(COCCC(=O)NCCOCCOCCOCCOC[C@]12CO[C@H](O1)[C@H](NC(=O)C(F)(F)F)[C@@H](O)[C@H]2O)(COCCC(=O)NCCOCCOCCOCCOC[C@]12CO[C@H](O1)[C@H](NC(=O)C(F)(F)F)[C@@H](O)[C@H]2O)NC(=O)CCCOc1ccc2nc(-c3cn(-c4ccc(O)c(F)c4)nn3)ccc2c1)NCCOCCOCCOCCOC[C@]12CO[C@H](O1)[C@H](NC(=O)C(F)(F)F)[C@@H](O)[C@H]2O` [MIF-AF3], the “molar equivalents of MIF protein depleted” value on human MIF (40 nM) was 2.08 molar equivalents. Further, at human MIF (40 nM (4.0 pmol of molecule)), the “human MIF protein removed” value was 8.32 pmol and the “removal of MIF present in the cell culture supernatant” value stood at 83.2%.

Take `CC(=O)NC1C(OCCOCCOCCNC(=O)CCOCC(COCCC(=O)NCCOCCOCCOC2OC(CO)C(O)C(O)C2NC(C)=O)(COCCC(=O)NCCOCCOCCOC2OC(CO)C(O)C(O)C2NC(C)=O)NC(=O)CNC(=O)COCCOCCOCCn2cc(COCCOCCOc3ccc(N4Cc5ccc(O)cc5OC4=O)cc3)nn2)OC(CO)C(O)C1O` (stereo not drawn) [MIF-NVS-PEG3-GN3]: the “depletion of human MIF from cell culture supernatant” value (shortened to “depletion of human MIF”) at human MIF (24 hours) was “effective at mediating the depletion of human MIF”.

Consider `CCN(CC)CCCC(C)Nc1ccnc2cc(Cl)ccc12` (stereo not drawn) [chloroquine, Chloroquine], for which the “effect of endocytic pathway inhibitors on MIF-GN3-mediated MIF endocytosis” value in the data set on HepG2 cells [2] is recorded as “near background levels”. For the same compound, the “effect of endocytic pathway inhibitors on intracellular fluorescence” value in the data set on HepG2 cells [3] is given as “significantly decreased”.

Regarding `O=C(CCOCC(COCCC(=O)NCCOCCOCCOCCOC[C@]12CO[C@H](O1)[C@H](NC(=O)C(F)(F)F)[C@@H](O)[C@H]2O)NC(=O)CCCOc1ccc2nc(-c3cn(-c4ccc(O)c(F)c4)nn3)ccc2c1)NCCOCCOCCOCCOC[C@]12CO[C@H](O1)[C@H](NC(=O)C(F)(F)F)[C@@H](O)[C@H]2O` [MIF-AF2], the “depletion of MIF from the cell culture supernatant” value on human MIF (200 nM or 1 (μM), after 48 hours) is listed as about 100%. On human MIF, the “depletion of MIF from cell culture supernatant” value was “effective at depleting MIF”.

As for `CC(C)CC(=O)N[C@H](C(=O)N[C@H](C(=O)N[C@@H](CC(C)C)[C@@H](O)CC(=O)N[C@@H](C)C(=O)N[C@@H](CC(C)C)[C@@H](O)CC(=O)O)C(C)C)C(C)C` [Pepstatin] (Isovaleryl-VV[Sta]A[Sta]-OH), in the data set with HepG2 cells [1], the “inhibition of degradation of α-DNP antibody, repeat with selected conditions” value (“inhibition … with selected conditions” below) is recorded as “did not”; the “inhibition … triplicate” value is reported as “did not significantly inhibit”; the toxicity to cells entry is recorded as “toxic to cells”. Besides, the “inhibition … initial screen” value in the data set with HepG2 cells [1] (setting [4]) is reported as “not effective”.

With `CC(=O)NC1C(OCCOCCOCCNC(=O)CCOCC(COCCC(=O)NCCOCCOCCOC2OC(CO)C(O)C(O)C2NC(C)=O)(COCCC(=O)NCCOCCOCCOC2OC(CO)C(O)C(O)C2NC(C)=O)NC(=O)CNC(=O)COCCOCCOCCOCCNC(=O)CCCOc2ccc3nc(-c4cn(-c5ccc(O)c(F)c5)nn4)ccc3c2)OC(CO)C(O)C1O` (stereo not drawn) [MIF-PEG4-GN3], the “depletion of human MIF” value at human MIF (24 hours) is reported as “effective at mediating the depletion of human MIF”.

On to `CC(=O)NC1C(OCCOCCOCCNC(=O)CCOCC(COCCC(=O)NCCOCCOCCOC2OC(CO)C(O)C(O)C2NC(C)=O)(COCCC(=O)NCCOCCOCCOC2OC(CO)C(O)C(O)C2NC(C)=O)NC(=O)CNC(=O)COCCOCCNC(=O)CCCOc2ccc3nc(-c4cn(-c5ccc(O)c(F)c5)nn4)ccc3c2)OC(CO)C(O)C1O` (stereo not drawn) [MIF-PEG2-GN3], for which the “depletion of exogenous MIF protein from supernatant” value on human MIF (24 hours, FIG. 128B) is “mediated MIF depletion across a range of concentrations”. Moreover, the “depletion of human MIF” value at human MIF (24 hours) is “effective at mediating the depletion of human MIF”.

As to `CC(C)C[C@H](NC(=O)[C@H]1O[C@@H]1C(=O)O)C(=O)NCCCCN=C(N)N` [Compound E64, E64], in the data set on HepG2 cells [1], the “inhibition … with selected conditions” value is on record as “inhibited degradation” and the “inhibition … triplicate” value is given as “inhibit α-DNP antibody degradation at all concentrations tested”. The “inhibition … initial screen” value with HepG2 cells [1] (setting [4]) is reported as “effective”.

Take `C=C1[C@@H](C)[C@H]2[C@H](Cc3ccccc3)NC(=O)[C@]23[C@H](OC(C)=O)/C=C/[C@@](C)(O)C(=O)[C@@H](C)C/C=C/[C@H]3[C@@H]1O` [cytochalasin D]: the “effect of endocytic pathway inhibitors on intracellular fluorescence” value in the data set with HepG2 cells [3] is recorded as “did not significantly decrease”.

For `CO/C1=C\C(C)=C\[C@@H](C)[C@@H](O)[C@@H](C)C/C(C)=C/C=C/[C@H](OC)[C@@H]([C@@H](C)[C@@H](O)[C@H](C)[C@@]2(O)C[C@@H](O)[C@H](C)[C@@H](C(C)C)O2)OC1=O` [bafilomycin, Bafilomycin], the “effect of endocytic pathway inhibitors on MIF-GN3-mediated MIF endocytosis” value in the data set with HepG2 cells [2] is on record as “near background levels”. Besides, the “effect of endocytic pathway inhibitors on intracellular fluorescence” value in the data set on HepG2 cells [3] is listed as “significantly decreased”.

Take `O=S(=O)(F)Cc1ccccc1` [PMSF, Phenylmethylsulfonyl fluoride]: the “inhibition … triplicate” value in the data set with HepG2 cells [1] is on record as “did not significantly inhibit”. For the same compound, in the data set with HepG2 cells [1] (setting [4]), the “inhibition … initial screen” value is “not effective”.

On to `Cl.N` [ammonium chloride], for which, in the data set on HepG2 cells [2], the “effect of endocytic pathway inhibitors on MIF-GN3-mediated MIF endocytosis” value is reported as “near background levels”.

For `CC[C@@]1([C@@H]2O[C@@H]([C@H]3O[C@@](O)(CO)[C@H](C)C[C@@H]3C)C[C@@H]2C)CC[C@H]([C@]2(C)CC[C@]3(C[C@H](O)[C@@H](C)[C@@H]([C@@H](C)[C@@H](OC)[C@H](C)C(=O)O)O3)O2)O1` [monensin, Monensin], the “effect of endocytic pathway inhibitors on MIF-GN3-mediated MIF endocytosis” value with HepG2 cells [2] is given as “near background levels”. Moreover, the “effect of endocytic pathway inhibitors on intracellular fluorescence” value with HepG2 cells [3] is listed as “significantly decreased”.

For `Cl.NCCc1ccc(S(=O)(=O)F)cc1` [AEBSF, 4-(2-aminoethyl)benzeneulfonyl fluoride hydrochloride], in the data set on HepG2 cells [1], the “inhibition … triplicate” value is “did not significantly inhibit” and the toxicity to cells entry is “toxic to cells”. Also, the “inhibition … initial screen” value in the data set on HepG2 cells [1] (setting [4]) is “not effective”.

On to `CC(=O)N[C@@H](CC(C)C)C(=O)N[C@@H](CC(C)C)C(=O)N[C@H](C=O)CCCNC(=N)N` [leupeptin, Leupeptin], for which, in the data set with HepG2 cells [1], the “inhibition … with selected conditions” value is on record as “inhibited degradation” and the “inhibition … triplicate” value is given as “inhibit α-DNP antibody degradation at all concentrations tested”. Moreover, the “inhibition … initial screen” value in the data set on HepG2 cells [1] (setting [4]) was “effective”.
